The values below come from US20070185093A1, “Benzotriazepine derivatives and their use as gastrin and cholecystokinin receptor ligands” (priority 2003, published 2007).

This assay has as its target T1, human gastrin (CCK2) receptors (Homo sapiens, UniProt P32239).
T1 construct: amplified by PCR (polymerase chain reaction) from the start codon to the stop codon; expressed in transfected cells
T1 sequence (P32239 1-447): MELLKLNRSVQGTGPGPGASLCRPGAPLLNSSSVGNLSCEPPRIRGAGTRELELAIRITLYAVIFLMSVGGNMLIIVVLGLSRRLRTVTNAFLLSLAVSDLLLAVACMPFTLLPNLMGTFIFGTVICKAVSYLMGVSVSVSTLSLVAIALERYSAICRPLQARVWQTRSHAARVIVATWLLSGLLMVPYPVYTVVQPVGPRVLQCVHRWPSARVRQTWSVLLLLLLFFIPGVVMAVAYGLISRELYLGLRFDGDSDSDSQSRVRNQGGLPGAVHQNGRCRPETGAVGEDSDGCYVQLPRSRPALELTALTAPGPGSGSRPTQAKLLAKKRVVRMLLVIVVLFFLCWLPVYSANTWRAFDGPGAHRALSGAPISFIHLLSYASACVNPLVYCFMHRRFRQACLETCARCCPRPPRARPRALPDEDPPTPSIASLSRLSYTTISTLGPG
In words: Displacement of [125I]-BH-CCK-8S from human CCK2 receptors cloned into NIH3T3 cells (membranes). The following applies: hCCK2 receptor, NIH3T3 clone 7 membranes, [125I]-BH-CCK-8S 200 pM, 150 min at 21° C.; ± s.e. mean; read-out: CCK2 (pKI) (converted). The assay is classed as binding. On the procedure: A number of compounds were tested at human gastrin (CCK2) receptors which have been cloned into an NIH3T3 cell line as follows:
Stable clones expressing hCCK2R were screened for their ability to specifically bind [^125I]-BH-CCK-8S in tissue concentration curve studies (0.3×10^4-1×10^6 cells per tube) using the assay conditions described below. […] In addition there was a direct linear correlation between the amount of specific bound label and the cell concentration up to and including 2.5×10^5 cells per ml. Based on the above, this clone was chosen for expansion and fall binding characterisation.
Cultured clone 7 cells were stored as frozen pellets at −70° C. until required. Cell pellets were thawed in CCK2 assay buffer ((mM): 10 Hepes; 130 NaCl; 5 MgCl2; 4.7 KCl; 1 EGTA (pH7.2 at 21° C.) with 0.125 g Bacitracin added to each litre), and homogenised using a Polytron (4×1 s). The resulting membrane preparation was centrifuged at 39,800 g for 15 min at 4° C. Each cell pellet was re-suspended in fresh buffer and re-centriflged as above. The final pellet was re-suspended by homogenisation (Teflon-in-glass), to the appropriate membrane concentration.
For saturation and competition studies, the cell membranes prepared as in step d (3×10^4 cells per 400 μl) were incubated for 150 min at 21° C. in a final volume of 0.5 ml with CCK2 assay buffer containing [^125I]-BH-CCK-8S (50 μl; 200 pM). Total and non-specific binding of [^125I]-BH-CCK-8S were defined, respectively using 50 μl of buffer and 50 μl of 10 μM YM022. The assays were terminated by rapid filtration through pre-soaked Whatman GF/B filters which were washed (3×3 ml) with ice-cold 50 mM Tris HCl (pH7.4 @ 4° C.). Filters were transferred to plastic gamma counter vials and bound radioactivity determined by counting (1 min) in a Clini-gamma counter.
The binding of [^125I]-BH-CCK-8S to the hCCK2 receptor isoform was saturable. […] Saturation data were analysed using the curve-fitting programmes, Radlig and Ligand.
A number of compounds of the invention as well as reference compounds were tested for their ability to displace [^125I]-BH-CCK-8S from the receptors prepared as above. Briefly, dilution and addition of test compounds, radioligand and cell membranes were performed using a Beckman Biomek 2000. The ability of compounds to inhibit the specific binding of to hCCK2 receptors was determined in triplicate over a range of concentrations at half-log intervals. Total and non-specific binding was determined for each compound. Each compound was tested in a minimum of three experiments. Competition data were fitted to the Hill equation using Graph-pad Prism software to obtain estimates of the IC50 (mid-point location parameter) and nH (mid-point slope parameter). Dissociation constants (KI) were determined using the Cheng & Prusoff equation (1973) to correct for the receptor occupancy by the radioligand. All compounds were dissolved in DMF to give a stock concentration of either 1 or 10 mM and subsequent dilutions were made in assay buffer.
A general note: In a radioligand displacement assay an active substance lowers the binding of a labelled ligand.

For `CC(C)(C)C(=O)CN1C(=O)N(CC(=O)Nc2cccc(C(=O)O)c2)NC(C2CCCCC2)c2ccccc21` (racemic) [Example 1, (+/−)-3-{2-[5-Cyclohexyl-1-(3,3-dimethyl-2-oxo-butyl)-2-oxo-1,2,4,5-tetrahydro-3H-1,3,4-benzotriazepin-3-yl]-acetylamino)-benzoic acid], the Ki was 17.8 nM.

Take `CNc1cccc(NC(=O)CN2NC(C3CCCCC3)c3ccccc3N(CC(=O)C(C)(C)C)C2=O)c1` (racemic) [Example 2, (+/−)-2-[5-Cyclohexyl-1-(3,3-dimethyl-2-oxo-butyl)-2-oxo-1,2,4,5-tetrahydro-3H-1,3,4-benzotriazepin-3-yl]-N-(3-methylamino-phenyl)-acetamide]: the Ki is 16.2 nM. Then `Cc1cccc(NC(=O)CN2NC(C3CCCCC3)c3ccccc3N(CC(=O)C(C)(C)C)C2=O)c1` (racemic) [Example 3, (+/−)-2-[5-Cyclohexyl-1-(3,3-dimethyl-2-oxo-butyl)-2-oxo-1,2,4,5-tetrahydro-3H-3H-1,3,4-benzotriazepin-3-yl]-N-m-tolyl-acetamide], with 44.7 nM; and `O=C(CN1NC(C2CCCCC2)c2ccccc2N(CC(=O)C2CCCC2)C1=O)Nc1cccc(C(=O)O)c1` (racemic) [Example 4, (+/−)-3-{2-[5-Cyclohexyl-1-(2-cyclopentyl-2-oxo-ethyl)-2-oxo-1,2,4,5-tetrahydro-3H-1,3,4-benzotriazepin-3-yl]-acetylamino}-benzoic acid], with 1.48 nM. Then `O=C(O)Cc1cccc(NC(=O)CN2NC(C3CCCCC3)c3ccccc3N(CC(=O)C3CCCC3)C2=O)c1` (racemic) [Example 5, (+/−)-(3-{2-[5-Cyclohexyl-1-(2-cyclopentyl-2-oxo-ethyl)-2-oxo-1,2,4,5-tetrahydro-3H-1,3,4-benzotriazepin-3-yl]-acetylamino}-phenyl)-acetic acid], with 79.4 nM; and `O=C(O)CCc1cccc(NC(=O)CN2NC(C3CCCCC3)c3ccccc3N(CC(=O)C3CCCC3)C2=O)c1` (racemic) [Example 6, (+/−)-3-(3-(2-[5-Cyclohexyl-1-(2-cyclopenlyl-2-oxo-ethyl)-2-oxo-1,2,4,5tetrahydro-3H-1,3,4-benzotriazepin-3-yl]-acetylamino}-phenyl)-propionic acid], with 0.759 nM; and `CNc1cccc(NC(=O)CN2NC(C3CCCCC3)c3ccccc3N(CC(=O)C3CCCC3)C2=O)c1` (racemic) [Example 7, (+/−)-2-[5-Cyclohexyl-1-(2-cyclopentyl-2-oxo-ethyl)-2-oxo-1,2,4,5-tetrahydro-3H-1,3,4-benzotriazepin-3-yl]-N-(3-methylamino-phenyl)-acetamide], with 2.63 nM. To `CC1(C(=O)CN2C(=O)N(CC(=O)Nc3cccc(C(=O)O)c3)NC(C3CCCCC3)c3ccccc32)CCCCC1` (racemic) [Example 8, (+/−)-3-(2-{5-Cyclohexyl-1-[2-(1-methyl-cyclohexyl)-2-oxo-ethyl]-2-oxo-1,2,4,5-tetrahydro-3H-1,3,4-benzotriazepin-3-yl}-acetylamino)-benizoic acid] belongs 7.76 nM; to `O=C(CN1NC(C2CCCCC2)c2ccccc2N(CC(=O)C2CCCCC2)C1=O)Nc1cccc(C(=O)O)c1` (racemic) [Example 9, (+/−)-3-{2-[5-Cyclohexyl-1-(2-cyclohexyl-2-oxo-ethyl)-2-oxo-1,2,4,5-tetrahydro-3H-1,3,4-benzotriazepin-3-yl]-acetylamino}-benzoic acid], 2.24 nM; to `O=C(O)Cc1cccc(NC(=O)CN2NC(C3CCCCC3)c3ccccc3N(CC(=O)C3CCCCC3)C2=O)c1` (racemic) [Example 10, (+/−)-(3-{2-[5-Cyclohexyl-1-(2-cyclohexyl-2-oxo-ethyl)-2-oxo-1,2,4,5-tetrahydro-3H-1,3,4-benzotriazepin-3-yl]-acetylamino}-phenyl)-acetic acid], 0.363 nM. `O=C(CN1NC(C2CCCCC2)c2ccccc2N(CC(=O)C2CCCC2)C1=O)Nc1cccc(-c2nnn[nH]2)c1` (racemic) [Example 15, (+/−)2-[5-Cyclohexyl-1-(2-cyclopentyl-2-oxo-ethyl)-2-oxo-1,2,4,5-tetrahydro-3H-1,3,4-benzotriazepin-3-yl]-N-[3-(2H-tetrazol-5-yl)-phenyl]-acetamide]: the Ki was 0.501 nM. Then `O=C(CN1NC(C2CCCCC2)c2ccccc2N(CC(=O)C2CCCC2)C1=O)Nc1cccc(-c2nc(=O)o[nH]2)c1` (racemic) [Example 16, (+/−)-2-[5-Cyclohexyl-1-(2-cyclopentyl-2-oxo-ethyl)-2-oxo-1,2,4,5-tetrahydro-3H-1,3,4-benzotriazepin-3-yl]-N-[3-(5-oxo-2,5-dihydro-[1,2,4]oxadiazol-3-yl)-phenyl]-acetamide], with 0.0794 nM; and `O=C(CN1NC(C2CCCCC2)c2ccccc2N(CC(=O)C2CCCC2)C1=O)Nc1cccc(C(=O)O)c1` (single isomer, unassigned; (+)) [Example 11, (+)-3-{2-[5-Cyclohexyl-1-(2-cyclopentyl-2-oxo-ethyl)-2-oxo-1,2,4,5-tetrahydro-3H-1,3,4-benzotriazepin-3-yl]-acetylamino}-benzoic acid], with 12.6 nM. To `O=C(O)Cc1cccc(NC(=O)CN2NC(C3CCCCC3)c3ccccc3N(CC(=O)C3CCCCC3)C2=O)c1` (single isomer, unassigned; (+)) [Example 13, (+)-(3-{2-[5-Cyclohexyl-1-(2-cyclohexyl-2-oxo-ethyl)-2-oxo-1,2,4,5-tetrahydro-3H-1,3,4-benzotriazepin-3-yl]-acetylamino}-phenyl)-acetic acid] belongs 3.98 nM; to `O=C(CN1NC(C2CCCCC2)c2ccccc2N(CC(=O)C2CCCC2)C1=O)Nc1cccc(C(=O)O)c1` (single isomer, unassigned; (-)) [Example 12, (−)-3-{2-[5-Cyclohexyl-1-(2-cyclopentyl-2-oxo-ethyl)-2-oxo-1,2,4,5-tetrahydro-3H-1,3,4-benzotriazepin-3-yl]-acetylamino}-benzoic acid], 1.58 nM. To `O=C(O)Cc1cccc(NC(=O)CN2NC(C3CCCCC3)c3ccccc3N(CC(=O)C3CCCCC3)C2=O)c1` (single isomer, unassigned; (-)) [Example 14, (−)-(3-{2-[5-Cyclohexyl-1-(2-cyclohexyl-2-oxo-ethyl)-2-oxo-1,2,4,5-tetrahydro-3H-1,3,4-benzotriazepin-3-yl]-acetylamino}-phenyl)-acetic acid] belongs 0.1 nM.
